Calls of active or inactive are those of the source.
How the values were obtained:
[1] = target: T1, RNA-binding protein pos-1 (Caenorhabditis elegans, UniProt G5EF15); experiment: inhibitors of POS-1/mex-3 RNA binding, dose response, biochemical, fluorescence polarization (AID 1964);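 also: purified POS-1 fused to maltose binding protein made in E. coli; potency of compounds blocking POS-1 binding to fluorescent RNA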
T1 sequence (G5EF15 whole entry): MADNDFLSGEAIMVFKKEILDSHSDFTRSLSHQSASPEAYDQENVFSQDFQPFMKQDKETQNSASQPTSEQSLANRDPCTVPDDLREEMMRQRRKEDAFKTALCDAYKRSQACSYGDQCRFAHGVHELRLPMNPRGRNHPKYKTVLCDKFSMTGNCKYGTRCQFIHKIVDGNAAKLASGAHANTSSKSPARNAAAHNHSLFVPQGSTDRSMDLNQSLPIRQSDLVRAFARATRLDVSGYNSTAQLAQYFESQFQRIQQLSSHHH

[2] = target: T2, Zinc finger protein mex-5 (Caenorhabditis elegans, UniProt Q9XUB2); experiment: MEX-5/TCR-2 RNA interaction inhibitors, dose response, biochemical, C. elegans, fluorescence polarization (AID 1960)
T2 sequence (Q9XUB2 whole entry): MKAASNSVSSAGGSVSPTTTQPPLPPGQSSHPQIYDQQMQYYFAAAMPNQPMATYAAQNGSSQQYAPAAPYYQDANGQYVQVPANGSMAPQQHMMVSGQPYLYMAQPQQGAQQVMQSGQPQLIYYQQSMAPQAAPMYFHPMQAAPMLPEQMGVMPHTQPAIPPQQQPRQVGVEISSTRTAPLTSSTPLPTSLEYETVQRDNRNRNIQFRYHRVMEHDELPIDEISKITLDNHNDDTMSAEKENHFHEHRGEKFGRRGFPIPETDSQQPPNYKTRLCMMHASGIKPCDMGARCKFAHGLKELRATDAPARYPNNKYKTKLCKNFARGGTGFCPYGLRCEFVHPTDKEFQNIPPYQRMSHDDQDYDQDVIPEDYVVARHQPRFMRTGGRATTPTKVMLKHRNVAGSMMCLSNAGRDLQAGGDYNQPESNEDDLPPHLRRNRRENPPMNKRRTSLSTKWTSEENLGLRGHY

[3] = target: T3, Alkaline phosphatase, tissue-nonspecific isozyme (Homo sapiens, UniProt P05186); experiment: TNAP enzyme inhibition by screening hits, dose response, selectivity assay for mouse IAP inhibitor project, biochemical, human TNAP, uHTS hits (AID 488906); type: functional
T3 sequence (P05186 whole entry): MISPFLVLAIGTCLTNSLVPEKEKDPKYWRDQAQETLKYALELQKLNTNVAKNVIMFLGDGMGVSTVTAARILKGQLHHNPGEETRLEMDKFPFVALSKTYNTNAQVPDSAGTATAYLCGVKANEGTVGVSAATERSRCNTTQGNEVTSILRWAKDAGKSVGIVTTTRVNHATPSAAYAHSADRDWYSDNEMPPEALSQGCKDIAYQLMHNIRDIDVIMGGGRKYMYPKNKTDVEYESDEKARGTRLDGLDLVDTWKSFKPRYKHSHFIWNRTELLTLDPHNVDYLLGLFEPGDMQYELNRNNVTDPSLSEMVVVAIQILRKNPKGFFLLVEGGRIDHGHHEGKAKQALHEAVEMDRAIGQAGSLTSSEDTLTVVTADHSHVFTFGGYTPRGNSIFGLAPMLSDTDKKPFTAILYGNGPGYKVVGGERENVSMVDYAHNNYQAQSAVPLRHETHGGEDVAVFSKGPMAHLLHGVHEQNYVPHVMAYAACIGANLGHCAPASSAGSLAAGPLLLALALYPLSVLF

[4] = target: T4, Heat shock factor protein 1 (Mus musculus, UniProt P38532); experiment: HSF1 potentiators in luciferase reporter cells, confirmation, cell-based, NIH3T3, luminescence, dose retest (AID 435004); type: functional;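 also: stress induced by proteasome inhibitor MG132 added 30 min after compound; luciferase reporter driven by HSF1 response element in NIH3T3 cells; actives raise luminescence as potentiators of the MG132 stress response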
T4 sequence (P38532 whole entry): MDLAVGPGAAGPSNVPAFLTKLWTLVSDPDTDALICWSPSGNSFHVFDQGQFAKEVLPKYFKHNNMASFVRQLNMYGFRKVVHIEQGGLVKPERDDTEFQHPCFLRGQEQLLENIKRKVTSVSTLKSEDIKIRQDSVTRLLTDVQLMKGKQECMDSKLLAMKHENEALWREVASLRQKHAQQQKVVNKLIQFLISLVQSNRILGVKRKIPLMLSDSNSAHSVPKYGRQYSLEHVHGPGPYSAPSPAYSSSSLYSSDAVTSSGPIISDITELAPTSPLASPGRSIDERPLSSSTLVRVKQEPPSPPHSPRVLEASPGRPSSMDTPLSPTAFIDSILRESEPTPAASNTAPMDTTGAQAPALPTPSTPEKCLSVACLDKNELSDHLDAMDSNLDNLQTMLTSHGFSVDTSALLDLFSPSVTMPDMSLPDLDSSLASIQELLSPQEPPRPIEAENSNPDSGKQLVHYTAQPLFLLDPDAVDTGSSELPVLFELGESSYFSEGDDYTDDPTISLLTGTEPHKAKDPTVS

[5] = target: Intestinal-type alkaline phosphatase (Homo sapiens, UniProt P09923); experiment: inhibition of human intestinal alkaline phosphatase – biochemical, dose response (AID 488876); type: functional
Intestinal-type alkaline phosphatase (Homo sapiens, UniProt P09923), sequence (P09923 whole entry): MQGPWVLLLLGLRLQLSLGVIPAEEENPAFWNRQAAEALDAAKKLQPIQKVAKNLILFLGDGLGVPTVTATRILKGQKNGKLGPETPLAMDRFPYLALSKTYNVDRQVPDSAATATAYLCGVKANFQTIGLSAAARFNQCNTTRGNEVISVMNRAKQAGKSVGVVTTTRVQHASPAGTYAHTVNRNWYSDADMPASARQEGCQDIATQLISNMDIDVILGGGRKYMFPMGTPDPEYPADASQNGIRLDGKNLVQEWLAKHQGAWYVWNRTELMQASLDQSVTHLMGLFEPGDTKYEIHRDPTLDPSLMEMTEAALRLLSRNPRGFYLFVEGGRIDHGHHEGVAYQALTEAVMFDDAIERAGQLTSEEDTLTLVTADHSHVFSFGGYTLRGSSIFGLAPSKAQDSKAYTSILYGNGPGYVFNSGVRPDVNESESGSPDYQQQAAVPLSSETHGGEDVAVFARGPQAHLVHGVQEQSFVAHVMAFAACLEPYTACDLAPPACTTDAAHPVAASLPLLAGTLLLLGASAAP

Genome polyprotein = Genome polyprotein (dengue virus type 2, UniProt P29990); experiment: Dengue-2 NS5 methyltransferase inhibitors, primary screen, biochemical, confirmation dose response (AID 588689); type: functional
Genome polyprotein, sequence (P29990 2492-3391 limits assumed): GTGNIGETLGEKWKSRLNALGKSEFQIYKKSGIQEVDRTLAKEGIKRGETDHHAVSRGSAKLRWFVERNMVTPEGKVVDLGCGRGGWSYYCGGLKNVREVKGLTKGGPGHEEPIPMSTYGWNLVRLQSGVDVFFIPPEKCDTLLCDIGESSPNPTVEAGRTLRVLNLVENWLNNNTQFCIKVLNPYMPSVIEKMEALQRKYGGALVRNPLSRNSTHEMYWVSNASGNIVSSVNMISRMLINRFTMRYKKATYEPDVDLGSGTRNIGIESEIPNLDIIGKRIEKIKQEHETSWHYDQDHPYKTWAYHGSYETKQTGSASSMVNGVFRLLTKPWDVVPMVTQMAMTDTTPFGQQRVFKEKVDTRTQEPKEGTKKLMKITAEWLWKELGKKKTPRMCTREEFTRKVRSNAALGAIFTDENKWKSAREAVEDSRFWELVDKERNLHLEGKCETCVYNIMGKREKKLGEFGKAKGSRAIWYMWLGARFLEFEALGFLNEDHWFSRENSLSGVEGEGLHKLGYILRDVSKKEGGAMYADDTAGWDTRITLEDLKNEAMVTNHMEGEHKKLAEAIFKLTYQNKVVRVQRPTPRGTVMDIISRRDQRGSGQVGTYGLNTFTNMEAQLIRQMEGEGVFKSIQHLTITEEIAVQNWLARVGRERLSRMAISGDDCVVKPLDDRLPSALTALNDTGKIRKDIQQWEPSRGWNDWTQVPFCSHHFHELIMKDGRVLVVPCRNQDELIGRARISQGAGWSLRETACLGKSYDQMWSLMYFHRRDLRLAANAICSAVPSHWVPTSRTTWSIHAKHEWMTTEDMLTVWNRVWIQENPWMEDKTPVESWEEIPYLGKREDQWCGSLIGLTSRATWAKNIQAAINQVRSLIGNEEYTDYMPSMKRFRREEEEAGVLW

[6] = target: Intestinal-type alkaline phosphatase (Mus musculus, UniProt P24822); experiment: PubChem AID 488785; type: functional
Intestinal-type alkaline phosphatase (Mus musculus, UniProt P24822), sequence (P24822 whole entry): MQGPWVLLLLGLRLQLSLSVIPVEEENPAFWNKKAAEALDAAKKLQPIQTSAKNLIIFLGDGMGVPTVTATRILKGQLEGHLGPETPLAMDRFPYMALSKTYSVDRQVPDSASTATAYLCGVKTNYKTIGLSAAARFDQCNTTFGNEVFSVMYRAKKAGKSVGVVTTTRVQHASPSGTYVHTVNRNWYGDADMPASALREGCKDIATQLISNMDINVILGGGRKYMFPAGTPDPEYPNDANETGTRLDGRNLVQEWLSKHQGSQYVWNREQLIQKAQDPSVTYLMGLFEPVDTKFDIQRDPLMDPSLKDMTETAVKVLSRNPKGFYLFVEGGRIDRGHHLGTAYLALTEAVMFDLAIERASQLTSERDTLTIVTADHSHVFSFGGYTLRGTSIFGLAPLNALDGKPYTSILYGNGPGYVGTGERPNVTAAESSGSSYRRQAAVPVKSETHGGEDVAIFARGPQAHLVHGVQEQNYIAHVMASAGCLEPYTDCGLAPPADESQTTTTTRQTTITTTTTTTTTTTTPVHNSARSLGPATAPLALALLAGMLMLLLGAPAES

[7] = target: FAD-linked sulfhydryl oxidase ALR (Homo sapiens, UniProt P55789); experiment: inhibitors of human ALR sulfhydryl oxidase, dose response, biochemical, H2O2 detection, luminescence, cherry-pick (AID 493248)
FAD-linked sulfhydryl oxidase ALR, sequence (P55789 whole entry, the tested form may be a part): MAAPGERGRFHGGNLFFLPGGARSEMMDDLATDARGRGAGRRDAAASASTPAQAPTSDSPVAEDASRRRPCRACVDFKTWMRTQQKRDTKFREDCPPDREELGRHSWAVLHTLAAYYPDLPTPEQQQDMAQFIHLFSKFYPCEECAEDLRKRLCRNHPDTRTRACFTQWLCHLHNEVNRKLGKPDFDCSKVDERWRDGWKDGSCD

[8] = target: T5, Carboxy-terminal domain RNA polymerase II polypeptide A small phosphatase 1 (Homo sapiens, UniProt Q9GZU7); experiment: inhibitors of CTDSP1, concentration-response testing, biochemical assay, absorbance-based, actives from ultra-high-throughput screening (AID 540297); type: functional
T5 sequence (Q9GZU7 whole entry): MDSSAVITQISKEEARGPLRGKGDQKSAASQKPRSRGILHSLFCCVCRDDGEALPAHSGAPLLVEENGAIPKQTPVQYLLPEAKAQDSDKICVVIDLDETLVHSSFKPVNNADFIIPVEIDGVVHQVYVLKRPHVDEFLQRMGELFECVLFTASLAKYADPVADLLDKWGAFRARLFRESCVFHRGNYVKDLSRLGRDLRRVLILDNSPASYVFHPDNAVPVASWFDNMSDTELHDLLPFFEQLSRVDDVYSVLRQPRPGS

Procathepsin L = Procathepsin L (Homo sapiens, UniProt P07711)
Procathepsin L, sequence (P07711 whole entry): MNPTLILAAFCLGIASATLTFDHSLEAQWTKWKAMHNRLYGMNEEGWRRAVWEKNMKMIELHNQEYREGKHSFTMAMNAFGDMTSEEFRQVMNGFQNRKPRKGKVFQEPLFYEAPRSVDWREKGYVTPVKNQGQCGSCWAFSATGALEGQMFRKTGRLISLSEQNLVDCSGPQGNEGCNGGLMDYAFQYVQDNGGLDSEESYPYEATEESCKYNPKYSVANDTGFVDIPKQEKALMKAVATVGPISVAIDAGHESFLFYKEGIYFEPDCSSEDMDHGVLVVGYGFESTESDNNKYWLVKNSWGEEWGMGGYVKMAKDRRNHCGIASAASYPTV

Large T antigen = Large T antigen (Simian virus 40, UniProt P03070); type: functional, Betapolyomavirus macacae;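 also: Confirmatory-stage PubChem screen for compounds that inhibit SV40 T antigen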
Large T antigen, sequence (P03070 whole entry): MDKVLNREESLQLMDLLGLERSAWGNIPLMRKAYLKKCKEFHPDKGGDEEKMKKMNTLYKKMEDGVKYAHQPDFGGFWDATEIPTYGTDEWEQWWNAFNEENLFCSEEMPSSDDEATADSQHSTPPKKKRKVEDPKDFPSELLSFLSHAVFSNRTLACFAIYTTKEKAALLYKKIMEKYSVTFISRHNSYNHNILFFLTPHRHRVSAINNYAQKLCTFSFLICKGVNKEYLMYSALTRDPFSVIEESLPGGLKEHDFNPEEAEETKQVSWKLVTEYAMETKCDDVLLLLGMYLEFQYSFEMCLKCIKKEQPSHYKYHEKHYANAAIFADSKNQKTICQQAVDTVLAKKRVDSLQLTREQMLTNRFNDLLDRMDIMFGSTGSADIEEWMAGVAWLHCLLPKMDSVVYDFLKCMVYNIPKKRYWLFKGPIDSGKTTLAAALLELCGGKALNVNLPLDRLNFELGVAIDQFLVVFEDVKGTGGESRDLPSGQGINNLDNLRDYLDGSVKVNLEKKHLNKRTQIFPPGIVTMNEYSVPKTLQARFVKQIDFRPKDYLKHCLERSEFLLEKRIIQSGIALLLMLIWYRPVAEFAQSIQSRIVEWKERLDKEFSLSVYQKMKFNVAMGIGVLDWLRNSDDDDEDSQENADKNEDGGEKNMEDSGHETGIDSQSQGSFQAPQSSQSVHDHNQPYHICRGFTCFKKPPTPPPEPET

Aspartyl aminopeptidase = target: T6, Aspartyl aminopeptidase (Plasmodium falciparum 3D7, UniProt Q8I2J3)
T6 sequence (Q8I2J3 whole entry): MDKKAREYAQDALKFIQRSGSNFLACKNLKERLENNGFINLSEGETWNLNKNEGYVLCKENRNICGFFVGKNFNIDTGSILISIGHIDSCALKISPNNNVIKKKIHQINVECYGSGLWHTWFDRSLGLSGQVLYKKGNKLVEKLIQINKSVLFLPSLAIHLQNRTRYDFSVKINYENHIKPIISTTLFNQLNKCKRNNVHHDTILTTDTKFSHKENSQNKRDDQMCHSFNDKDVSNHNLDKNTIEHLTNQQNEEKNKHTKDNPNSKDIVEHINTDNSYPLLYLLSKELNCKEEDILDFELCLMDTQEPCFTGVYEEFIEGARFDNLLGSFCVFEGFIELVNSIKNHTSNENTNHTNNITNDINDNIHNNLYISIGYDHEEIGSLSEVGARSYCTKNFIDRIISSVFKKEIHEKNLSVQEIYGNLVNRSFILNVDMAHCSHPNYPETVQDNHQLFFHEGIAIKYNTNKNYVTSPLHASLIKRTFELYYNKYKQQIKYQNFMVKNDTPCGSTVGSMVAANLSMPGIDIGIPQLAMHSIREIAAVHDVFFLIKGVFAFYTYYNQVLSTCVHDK

HEK293 = experiment: cells; conditions: Homo sapiens;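 also: cells exposed to compound for 14 hours overnight before viability readout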
[9] = target: T7, Nucleotide-binding oligomerization domain-containing protein 1 (Homo sapiens, UniProt Q9Y239); experiment: NOD1 signaling inhibitors, SAR follow-up, revised (AID 2333); type: functional
T7 sequence (Q9Y239 whole entry): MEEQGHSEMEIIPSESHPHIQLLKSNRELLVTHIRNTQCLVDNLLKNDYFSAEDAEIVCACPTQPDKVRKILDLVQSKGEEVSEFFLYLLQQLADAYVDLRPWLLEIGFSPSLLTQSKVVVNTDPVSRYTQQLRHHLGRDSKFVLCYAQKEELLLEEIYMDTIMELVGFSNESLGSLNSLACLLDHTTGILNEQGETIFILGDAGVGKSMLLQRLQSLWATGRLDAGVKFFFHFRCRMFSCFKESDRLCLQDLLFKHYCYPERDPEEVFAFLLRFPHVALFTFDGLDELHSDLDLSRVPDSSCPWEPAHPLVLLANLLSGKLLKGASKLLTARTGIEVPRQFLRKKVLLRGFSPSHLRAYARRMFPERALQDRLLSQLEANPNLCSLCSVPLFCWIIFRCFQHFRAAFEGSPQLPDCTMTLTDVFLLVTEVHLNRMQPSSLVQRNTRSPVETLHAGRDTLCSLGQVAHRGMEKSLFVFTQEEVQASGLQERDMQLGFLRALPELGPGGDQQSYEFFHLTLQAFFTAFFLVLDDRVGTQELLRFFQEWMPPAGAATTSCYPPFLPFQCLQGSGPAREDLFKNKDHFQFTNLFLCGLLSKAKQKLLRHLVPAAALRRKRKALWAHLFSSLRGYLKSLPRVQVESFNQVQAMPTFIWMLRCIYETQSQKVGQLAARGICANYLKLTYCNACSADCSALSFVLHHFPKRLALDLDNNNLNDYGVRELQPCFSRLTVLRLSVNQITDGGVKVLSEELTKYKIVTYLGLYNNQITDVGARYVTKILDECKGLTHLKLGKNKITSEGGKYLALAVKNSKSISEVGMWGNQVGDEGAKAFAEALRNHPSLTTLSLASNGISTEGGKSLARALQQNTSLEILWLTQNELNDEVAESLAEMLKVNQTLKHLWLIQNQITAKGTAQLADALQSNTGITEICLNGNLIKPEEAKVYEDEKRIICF

Tumor necrosis factor = Tumor necrosis factor (Homo sapiens, UniProt P01375); experiment: TNFa-triggered NF-kB activation inhibitors, SAR follow-up, cell-based, revised (AID 2337); type: functional
Tumor necrosis factor, sequence (P01375 whole entry): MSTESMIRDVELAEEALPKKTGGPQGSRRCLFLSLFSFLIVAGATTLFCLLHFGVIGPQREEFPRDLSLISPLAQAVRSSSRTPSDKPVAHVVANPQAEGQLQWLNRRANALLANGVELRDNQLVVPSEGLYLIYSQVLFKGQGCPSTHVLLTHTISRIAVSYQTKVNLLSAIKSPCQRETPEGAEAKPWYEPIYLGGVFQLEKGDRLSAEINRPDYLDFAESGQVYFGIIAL

Row | Compound | EC50 [1] | EC50 [2] | IC50 [3] | EC50 [4] | IC50 [5] | IC50 (Genome polyprotein) | IC50 [6] | AC50 [7] | IC50 [8] | IC50 (Procathepsin L) | IC50 (Large T antigen) | IC50 (Aspartyl aminopeptidase) | IC50 (HEK293) | IC50 [9] | IC50 (Tumor necrosis factor)
1 | Cc1ccc(Cl)c2c(C3=NC(=S)NC3=O)c(O)[nH]c12 | 14.3 µM (active) | 0.294 µM (inconclusive) | 0.211 µM (active) | > 260 µM (inactive) | > 100 µM (inactive) | 61.5 µM (active) | 0.206 µM (active) |  |  |  |  |  |  |  | 
2 | O=[N+]([O-])c1c(O)nc(/C=C\c2ccc(O)c(O)c2)nc1O | 250 µM (active) | 179 µM (active) | 1.12 µM (active) |  | 4.34 µM (active) |  | 1.04 µM (active) | 1.05 µM (active) | 36.1 µM (active) | > 59.6 µM (not active) | 4.72 µM (active) | 0.67 µM (active) |  |  | 
3 | CC1Cc2cc(S(=O)(=O)N3CCN(c4ccccc4)CC3)ccc2N1C(=O)C1CC1 (stereo not given) |  |  |  |  |  |  |  |  |  |  |  |  | > 20 µM (inactive) | > 20 µM (inactive) | 15.3 µM (active)

From ChEMBL document CHEMBL1201862, “PubChem BioAssay data set” (2004)
